“And” between values parts separate entries of the source, which are not always exact repeats. Equal values may be shown once.
Assay: solvent given as SMILES

Compound CC1=C(c2ccccc2)Oc2cc3nc4ccccc4nc3c3cccc1c23 has an absorption maximum (in ClCCl) of 495 nm.

With COc1ccc(/C=C/C2=NC(=C\c3ccncc3)/C(=O)N2C)cc1 the absorption maximum (in C1COCCO1) was 422 nm, the absorption maximum (in CC#N) was 428 nm and the absorption maximum (in CCO) was 433 nm. For the same compound, the absorption maximum (in CCOC(C)=O) was 423 nm and the absorption maximum (in O) was 425 nm.

COC(=O)c1c(NC(C)(C)C)oc(-c2ccccc2)c1C(=O)OC gave an absorption maximum (in CC#N) of 334 nm.

For c1cc2cc(c1)c1ccc3c(c1)c1cc(ccc1[C@]14OCCO[C@]31OCCO4)c1ccc3c(c1)c1cc(ccc1[C@]14OCCO[C@]31OCCO4)c1cccc2c1, the absorption maximum (in ClC(Cl)Cl) was 260 nm.

In the case of c1ccc(C2=C(c3ccccc3)c3cccc4c3c(cc3nc5c(-c6ccccc6)ccc(-c6ccccc6)c5nc34)O2)cc1, the absorption maximum (in ClCCl) is reported as 503 nm.

For CC(C)(C)c1ccc2c(c1)c1cc(C(C)(C)C)ccc1n2-c1ccc(-c2nc3cc(C#N)c(C#N)cc3nc2-c2ccc(-n3c4ccc(C(C)(C)C)cc4c4cc(C(C)(C)C)ccc43)cc2)cc1, the absorption maximum (in Cc1ccccc1) was 443 nm.

Compound COc1ccc(C2=C/C(=C\c3ccc(C#N)cc3)C(=O)O2)cc1OC has an absorption maximum (in C1COCCO1) of 428 nm.

With Oc1ccc2ncccc2c1 the absorption maximum (in CC#N) was 331 nm, the absorption maximum (in CCCC#N) was 333 nm and the absorption maximum (in CO) was 331 nm. The absorption maximum (in Cc1ccccc1) was 332 nm and the absorption maximum (in ClCCl) was 330 nm.

With Cc1ccc(/C2=C3N=C(C(c4ccccc4)=C/3c3ccccc3)/C(c3ccc(C)cc3)=c3\[nH]/c(c(-c4ccccc4)c3-c3ccccc3)=C(/c3ccc(C)cc3)C3=N/C(=C(/c4ccc(C)cc4)c4[nH]c2c(-c2ccccc2)c4-c2ccccc2)C(c2ccccc2)=C3c2ccccc2)cc1 the absorption maximum (in ClCCl) was 721 nm.

Compound C(=C\c1c2ccccc2cc2ccccc12)/c1cccc2ccccc12 has an absorption maximum (in CC1CCCCC1) of 386 nm and an absorption maximum (in CC#N) of 386 nm.

Compound CCn1c2ccccc2c2cc(C#Cc3cc(C#Cc4ccc5c(c4)c4ccccc4n5CC)nc(N4CCCCC4)n3)ccc21 has an absorption maximum (in C1CCOC1) of 393 nm, an absorption maximum (in CCOC(C)=O) of 391 nm and an absorption maximum (in CN(C)C=O) of 398 nm. The absorption maximum (in Cc1ccccc1) was 395 nm and the absorption maximum (in ClCCl) was 397 nm.

CCCCC(CC)CN1C(=O)C2=C(c3ccc(-c4ccc(C5=C6C(C)=CC(C)=[N+]6[B-](F)(F)n6c(C)cc(C)c65)cc4)s3)N(CC(CC)CCCC)C(=O)C2=C1c1cccs1 (stereo not drawn) showed an absorption maximum (in Cc1ccccc1) of 580 nm.

For Cn1c(-c2ccc(-c3nc(-c4ccccc4)c(-c4ccccc4)n3C)cc2)nc(-c2ccccc2)c1-c1ccccc1, the absorption maximum (in CC#N) was 365 nm and 334 nm.

For N#Cc1c(C#N)c2cc(F)ccc2c2ccc(F)cc12, the absorption maximum (in ClC(Cl)Cl) was 335 nm.

Work on Nc1ccc2ccc3cccc4ccc1c2c34 yielded an absorption maximum (in CC#N) of 361 nm, an absorption maximum (in CCCCOCCCC) of 361 nm and an absorption maximum (in CO) of 357 nm.

In the case of Cc1ccc(/C=C(\c2ccccc2)c2nc3ccccc3o2)cc1, the absorption maximum (in C1CCCCC1) is reported as 325 nm and the absorption maximum (in CO) is reported as 330 nm.

CC1=[N+]2C(=c3c4c5ccccc5cc5cccc(c6cc(C)n(c36)[B-]2(F)F)c54)C=C1 showed an absorption maximum (in C1CCOC1) of 584 nm, an absorption maximum (in CCCCCC) of 583 nm and an absorption maximum (in CO) of 583 nm. For the same compound, the absorption maximum (in CS(C)=O) was 587 nm, the absorption maximum (in ClC(Cl)Cl) was 584 nm and the absorption maximum (in ClCCl) was 583 nm.

For CCOC(=O)c1c2c3c(cccc3c3cc4ccccc4cc13)N(C)C2=O, the absorption maximum (in CC#N) was 398 nm.

In the case of CCOc1ccc(/C=C/C=C/C=C/c2ccc([N+](=O)[O-])cc2)cc1, the absorption maximum (in CC1CCCCC1) is reported as 414 nm, the absorption maximum (in CC#N) is reported as 412 nm and the absorption maximum (in Cc1ccccc1) is reported as 419 nm. For the same compound, the absorption maximum (in ClCCl) was 420 nm.

In the case of CC(=O)Nc1cccc2c1C#Cc1c(cccc1C(=O)N(C)C)OCCCO2, the absorption maximum (in CC#N) is reported as 315 nm and the absorption maximum (in ClCCl) is reported as 318 nm.

COC(=O)c1ccc(C#Cc2ccccc2)cc1 showed an absorption maximum (in C1CCCCC1) of 316.6 nm, an absorption maximum (in CC#N) of 311.6 nm and an absorption maximum (in CC(C)O) of 313.8 nm. It also gave an absorption maximum (in CCCCCC) of 314.8 nm, an absorption maximum (in CCCCCCCCCCCCCCCC) of 317.3 nm and an absorption maximum (in CCCCCCCCCCCCCCCCCl) of 317.2 nm. It also gave an absorption maximum (in CO) of 311.8 nm.

With CCOC(=O)c1c(-c2cc3ccccc3oc2=O)nn(-c2ccc(Br)cc2)c1C(=O)OCC the absorption maximum (in ClCCl) was 323 nm.

For c1ccc(-c2cc(-c3ccc(N4c5ccccc5C(c5ccccc5)(c5ccccc5)c5ccccc54)cn3)nc(-c3ccccc3)n2)cc1, the absorption maximum (in Cc1ccccc1) was 378.85 nm.

Work on CCOC(=O)c1cc(C(=O)OCC)c2cccc(OCc3ccccc3)c2n1 yielded an absorption maximum (in CCO) of 366 nm.

CCc1c(C)[nH]c(C2=[N+]3C(=C(C)c4c(C)c(CC)c(C)n4[B-]3(F)F)c3ccccc32)c1C showed an absorption maximum (in C1CCOC1) of 618 nm, an absorption maximum (in CC#N) of 610 nm and an absorption maximum (in CCCCCC) of 620 nm. It also gave an absorption maximum (in CO) of 613 nm, an absorption maximum (in Cc1ccccc1) of 625 nm and an absorption maximum (in ClCCl) of 619 nm.

With c1ccc2c(-c3cncnc3)c3ccccc3c(-c3cncnc3)c2c1 the absorption maximum (in CCO) was 394 nm and the absorption maximum (in ClCCl) was 397 nm.

Compound CC(C)C1=c2c(c3[nH]cc(C(C)C)c3c3ccccc23)=[N+]2C1=Cc1c(C(C)C)c3c4ccccc4c4c(C(C)C)c[nH]c4c3n1[B-]2(F)F has an absorption maximum (in ClC(Cl)Cl) of 727 nm.

In the case of COc1ccc(N(c2ccc(C=C(c3ccccc3)c3ccccc3)cc2)c2ccc(C=C(c3ccccc3)c3ccccc3)cc2)cc1, the absorption maximum (in Cc1ccccc1) is reported as 397 nm.

Compound CC[N+]1(CC)CN2C(=N1)C(C(=O)O)=Cc1c(OC)ccc(OC)c12 has an absorption maximum (in O) of 368 nm.

With CC(C)c1cccc(C(C)C)c1-n1c(=O)c2ccc3c4ccc5c(=O)n(-c6c(C(C)C)cccc6C(C)C)c(=O)c6cc7c(-c8ccccn8)nc8cc(c1=O)c2c3c8c7c4c56 the absorption maximum (in ClC(Cl)Cl) was 474 nm.

Compound COc1ccc2c(-c3nc(-c4ccccc4)no3)cc(=O)oc2c1 has an absorption maximum (in CCO) of 344 nm and an absorption maximum (in ClC(Cl)Cl) of 345 nm.

Work on c1ccc(-c2nc(-c3nc(-c4ccccc4)c(-c4ccccc4)o3)oc2-c2ccccc2)cc1 yielded an absorption maximum (in C1COCCO1) of 343 nm.

With S=P1(c2ccccc2)C(c2ccccc2)=Cc2cc3ccccc3cc21 (stereo not drawn) the absorption maximum (in ClCCl) was 387 nm.

CCCc1ccc(C#Cc2cc(C#Cc3ccc(CCC)cc3)c3ccc4c(C#Cc5ccc(CCC)cc5)cc(C#Cc5ccc(CCC)cc5)c5ccc2c3c54)cc1 showed an absorption maximum (in ClCCl) of 470 nm.

Compound F[B-]1(F)n2c(c3cc4ccccc4cc3c2-c2ccccc2)C=C2c3cc4ccccc4cc3C(c3ccccc3)=[N+]21 has an absorption maximum (in C1CCOC1) of 761 nm, an absorption maximum (in CN(C)C=O) of 764 nm and an absorption maximum (in ClCCl) of 762 nm. The absorption maximum (in c1ccccc1) was 765 nm.

[O-]c1ccc2ccccc2c1 gave an absorption maximum (in O) of 346 nm.

Compound Cc1ccc(-c2c3nc(c(-c4ccc(C)cc4)c4ccc([nH]4)c(-c4ccc(OC(=O)C(C)c5cccc(C(=O)c6ccccc6)c5)cc4)c4nc(c(-c5ccc(C)cc5)c5ccc2[nH]5)C=C4)C=C3)cc1 (stereo not drawn) has an absorption maximum (in ClCCl) of 649 nm.
